Results on 11 compounds are retold here after patent US20140051679A1, “KINASE INHIBITORS AND METHOD OF TREATING CANCER WITH SAME” (UNIVERISTY HEALTH NETWORKS, priority 2011, published 2014).

Assay [1] deals with MDA-MB-231 breast cancer cells. The experiment in a line: Cell growth inhibition, Sulforhodamine B assay, MDA-MB-231. The format is cell-based. Conditions: Homo sapiens, 120 h, 5 days culture, SRB assay, read-out: Cell Line GI50 Range MDA-MB-231.
Assay [2] has as its system HT29 colon cancer cells. The experiment in a line: Cell growth inhibition, Sulforhodamine B assay, HT29. The format is cell-based. Conditions: Homo sapiens, HT-29, 120 h, 5 days culture, SRB assay, read-out: Cell Line GI50 Range HT29. Background: In SRB staining, fixed cells bind dye roughly in proportion to their protein.
Assay [3] has as its target T1, human TTK (Homo sapiens, UniProt P33981).
T1 construct: amino terminal GST fusion of full length human TTK; purchased Invitrogen
T1 sequence (P33981 1-857): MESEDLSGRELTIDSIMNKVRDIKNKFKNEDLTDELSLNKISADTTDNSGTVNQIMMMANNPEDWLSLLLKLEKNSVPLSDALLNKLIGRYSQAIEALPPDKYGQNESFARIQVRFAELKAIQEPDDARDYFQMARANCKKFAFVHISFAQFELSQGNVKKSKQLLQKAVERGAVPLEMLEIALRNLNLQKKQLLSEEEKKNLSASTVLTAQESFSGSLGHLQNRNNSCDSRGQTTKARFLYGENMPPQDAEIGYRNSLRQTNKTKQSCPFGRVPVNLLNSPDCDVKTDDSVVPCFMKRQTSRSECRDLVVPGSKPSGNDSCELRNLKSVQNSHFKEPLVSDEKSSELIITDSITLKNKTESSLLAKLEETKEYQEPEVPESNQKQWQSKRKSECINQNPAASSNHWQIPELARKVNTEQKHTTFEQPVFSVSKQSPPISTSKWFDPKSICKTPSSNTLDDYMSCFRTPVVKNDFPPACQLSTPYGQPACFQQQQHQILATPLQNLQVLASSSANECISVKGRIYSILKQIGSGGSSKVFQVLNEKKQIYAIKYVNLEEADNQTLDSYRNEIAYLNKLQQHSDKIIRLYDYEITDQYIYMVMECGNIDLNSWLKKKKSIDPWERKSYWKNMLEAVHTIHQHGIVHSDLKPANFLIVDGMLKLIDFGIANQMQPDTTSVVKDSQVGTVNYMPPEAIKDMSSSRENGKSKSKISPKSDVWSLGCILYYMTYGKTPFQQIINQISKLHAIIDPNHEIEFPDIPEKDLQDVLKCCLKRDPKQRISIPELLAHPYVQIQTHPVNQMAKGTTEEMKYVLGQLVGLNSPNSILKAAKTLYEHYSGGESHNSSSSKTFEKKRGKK
The experiment in a line: TTK inhibition assay (indirect ELISA). It counts as biochemical. Particulars: GST-TTK 0.68 nM, 16 μM ATP; read-out: IC50 Ranges TTK. For orientation: ELISA stands for enzyme-linked immunosorbent assay.

Assay [4] has as its system MDA-MB-468 breast cancer cells. In words: Cell growth inhibition, Sulforhodamine B assay, MDA-MB-468. It counts as cell-based. Particulars: Homo sapiens, 120 h, 5 days culture, SRB assay, read-out: Cell Line GI50 Range MDA-MB-468.
Assay [5] relates to HCT116 colon cancer cells. The experiment in a line: Cell growth inhibition, Sulforhodamine B assay, HCT116. It counts as cell-based. Conditions: Homo sapiens, HCT-116, 120 h, 5 days culture, SRB assay, read-out: Cell Line GI50 Range HCT116.
Assay [6] deals with T2, human PLK4 (Homo sapiens, UniProt O00444).
T2 construct: amino terminal GST fusion of residues 1-391 of human PLK4; made in house; host or cells: E. coli
T2 sequence (O00444 1-391): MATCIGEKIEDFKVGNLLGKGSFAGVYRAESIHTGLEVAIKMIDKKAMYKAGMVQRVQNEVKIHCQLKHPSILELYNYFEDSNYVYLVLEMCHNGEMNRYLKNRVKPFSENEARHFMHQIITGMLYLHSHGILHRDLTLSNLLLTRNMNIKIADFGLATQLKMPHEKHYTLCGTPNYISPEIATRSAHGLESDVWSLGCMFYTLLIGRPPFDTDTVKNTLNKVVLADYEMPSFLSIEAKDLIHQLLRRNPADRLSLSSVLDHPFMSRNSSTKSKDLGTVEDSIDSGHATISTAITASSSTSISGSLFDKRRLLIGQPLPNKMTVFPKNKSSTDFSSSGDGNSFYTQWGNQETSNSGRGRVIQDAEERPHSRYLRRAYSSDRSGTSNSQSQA
The experiment in a line: PLK4 inhibition assay (indirect ELISA). It counts as biochemical. Conditions: GST-PLK4 4 nM, 15 μM ATP; read-out: IC50 Ranges PLK4. Summed up:
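Dephosphorylated GST-tagged human PLK4 (residues 1-391, E. coli), 4 nM, preincubated 15 min with compound, then reacted 30 min with 15 μM ATP on MBP-coated plates (50 mM HEPES pH 7.5, 10 mM MgCl2, 0.01% Brij 35). Phospho-MBP detected by antibody ELISA at 450 nm. Tested at 10 μM or 10-point titrations; IC50 from 4-parameter logistic fit.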

Assay [7] has as its system PA-1 ovarian cancer cells. In words: Cell growth inhibition, Sulforhodamine B assay, PA-1. The format is cell-based. Particulars: 120 h, 5 days culture, SRB assay, read-out: Cell Line GI50 Range PA-1.
Method: Breast cancer cells (MDA-MB-231, MDA-MB-468), colon cancer cells (HCT116, HT29) and ovarian cancer cells (PA-1, OVCAR-3) were seeded (1000 to 4000 in 80 μl per well depending on the cell growth rate) into 96 well plates 24 hours before compound overlay. Compounds were prepared as 10 mM stock solutions in 100% DMSO which were diluted with DMEM (Dulbecco's Modified Eagle's Medium) cell growth Medium (Invitrogen, Burlington, ON, Canada) containing 10% FBS (Fetal Bovine Serum) to concentrations ranging from 50 nM to 250 μM. Aliquots (20 μl) from each concentration were overlaid to 80 μl of the pre-seeded cells in the 96 well plates to make final concentrations of 10 nM to 50 μM. The cells were cultured for 5 days before the Sulforhodamine B assay (SRB) was performed to determine the compound's cell growth inhibition activity.
Sulforhodamine B (purchased from Sigma, Oakville, ON, Canada) is a water-soluble dye that binds to the basic amino acids of the cellular proteins. Thus, colorimetric measurement of the bound dye provides an estimate of the total protein mass that is related to the cell number. the cells are fixed in situ by gently aspirating off the culture media and adding 50 μl ice cold 10% Trichloroacetic Acid (TCA) per well and incubate at 4° C. for 30-60 min, The plates are washed with water five times and allowed to air dry for 5 min. Addition of 50 μl 0.4% (w/v) SRB solution in 1% (v/v) acetic acid to each well and incubatation for 30 min at RT completes the staining reaction. Following staining, plates are washed four times with 1% acetic acid to remove unbound dye and then allowed to air dry for 5 min. The stain is solubilized with 100 μl of 10 mM Tris pH 10.5 per well. Absorbance is read at 570 nm.
The percentage (%) of relative growth inhibition was calculated by comparing to DMSO treated only cells (100%). […] The GI50 was calculated using GraphPad PRISM software (GraphPad Software, Inc., San Diego, Calif., USA).
The test system of assay [8] is OVCAR-3 ovarian cancer cells. In words: Cell growth inhibition, Sulforhodamine B assay, OVCAR-3. It counts as cell-based. Particulars: Homo sapiens, 120 h, 5 days culture, SRB assay, read-out: Cell Line GI50 Range OVCAR-3.

Bounds are passed on as bounds.

For `CO[C@@H](C(=O)Nc1ccc2[nH]nc(-c3ccc(O[C@@H]4CCN(C)C[C@@H]4F)cc3)c2c1)c1ccccc1` (relative stereo) [Example A135, (R)—N-(3-(4-(((3S,4R)-3-fluoro-1-methylpiperidin-4-yl)oxy)phenyl)-1H-indazol-5-yl)-2-methoxy-2-phenylacetamide], the GI50 in assay [1], in assay [2], in assay [4], in assay [5], in assay [7] and in assay [8] was at most 5 µM each time. Moreover, the IC50 in assay [3] and in assay [6] was at most 5 µM throughout.
`CC(C)(C)OC(=O)N1CCC(Oc2ccc(-c3n[nH]c4ccc(NC(=O)C(c5ccsc5)N5CCCC5)cc34)cc2)CC1` (stereo not shown) [Example A115, tert-butyl 4-(4-(5-(2-(pyrrolidin-1-yl)-2-(thiophen-3-yl)acetamido)-1H-indazol-3-yl)phenoxy)piperidine-1-carboxylate]: the concentration for 50% growth inhibition (GI50) in assay [1], in assay [2], in assay [4], in assay [5], in assay [7] and in assay [8] was at most 5 µM in each case. Also, the IC50 in assay [3] and in assay [6] was at most 5 µM each time.
With `CN1CCC(Oc2ccc(-c3n[nH]c4ccc(NC(=O)C5OCCc6ccccc65)cc34)cc2)CC1` (stereo not shown) [Example A146, N-(3-(4-(1-Methylpiperidin-4-yloxy)phenyl)-1H-indazol-5-yl)isochroman-1-carboxamide], the GI50 in assay [1], in assay [2], in assay [4], in assay [5], in assay [7] and in assay [8] was at most 5 µM in each case. For the same compound, the IC50 in assay [3] and in assay [6] was at most 5 µM in each case.
Regarding `CN1CCC(Oc2ccc(-c3n[nH]c4ccc(C(=O)NCc5ccccc5CO)cc34)cc2)CC1` [Example A142, N-(2-(hydroxymethyl)benzyl)-3-(4-((1-methylpiperidin-4-yl)oxy)phenyl)-1H-indazole-5-carboxamide], the GI50 – broadly, the concentration at which growth is held to half of that of the control – was at most 5 µM in assay [1]; at most 5 µM in assay [2]; at most 5 µM in assay [4]; at most 5 µM in assay [5]; at most 5 µM in assay [7]; 5 to 20 µM in assay [8]. In addition, the IC50 in assay [3] and in assay [6] was at most 5 µM in each case.
In the case of `CO[C@@H](C(=O)Nc1ccc2[nH]nc(-c3ccc(OCC4CCN(C)CC4)cc3)c2c1)c1ccccc1` [Example A145, (R)-2-methoxy-N-(3-(4-((1-methylpiperidin-4-yl)methoxy)phenyl)-1H-indazol-5-yl)-2-phenylacetamide], the GI50 in assay [1], in assay [2], in assay [4], in assay [5], in assay [7] and in assay [8] was at most 5 µM in each case. Also, the IC50 in assay [3] and in assay [6] was at most 5 µM throughout.
As to `Cc1ccccc1C(NC(=O)c1ccc2[nH]nc(-c3ccc(N4CC(O)C4)cc3)c2c1)C1CC1` (stereo not shown) [Example A141, N-(Cyclopropyl(o-tolyl)methyl)-3-(4-(3-hydroxyazetidin-1-yl)phenyl)-1H-indazole-5-carboxamide], the 50% growth inhibitory concentration (GI50) in assay [1], in assay [2], in assay [4], in assay [5], in assay [7] and in assay [8] was at most 5 µM each time. For the same compound, the half-inhibitory concentration (IC50) in assay [3] and in assay [6] was at most 5 µM each time.
Take `COc1ccccc1C(C(=O)Nc1ccc2[nH]nc(-c3ccc(OC4CCN(C)CC4)cc3)c2c1)C1CCCC1` (stereo not shown) [Example A156, 2-cyclopentyl-2-(2-methoxyphenyl)-N-(3-(4-((1-methylpiperidin-4-yl)oxy)phenyl)-1H-indazol-5-yl)acetamide]: the GI50 in assay [1], in assay [2], in assay [4], in assay [5], in assay [7] and in assay [8] was at most 5 µM in each case. The IC50 in assay [3] and in assay [6] was at most 5 µM in each case.
Turning to `COCCN1CCC(Oc2ccc(-c3n[nH]c4ccc(C(=O)N[C@H](C)c5ccccc5F)cc34)cc2)CC1` [Example A129, (R)—N-(1-(2-fluorophenyl)ethyl)-3-(4-((1-(2-methoxyethyl)piperidin-4-yl)oxy)phenyl)-1H-indazole-5-carboxamide], the GI50 was at most 5 µM in assay [1]; at most 5 µM in assay [2]; at most 5 µM in assay [4]; at most 5 µM in assay [5]; at most 5 µM in assay [7]; 5 to 20 µM in assay [8]. The IC50 in assay [3] and in assay [6] was at most 5 µM throughout.
As to `COCCN1CCC(Oc2ccc(-c3n[nH]c4ccc(C(=O)N[C@H](COC)c5ccccc5)cc34)cc2)CC1` [Example A164, (S)—N-(2-methoxy-1-phenylethyl)-3-(4-((1-(2-methoxyethyl)piperidin-4-yl)oxy)phenyl)-1H-indazole-5-carboxamide], the GI50 in assay [1], in assay [2], in assay [4], in assay [5], in assay [7] and in assay [8] was at most 5 µM throughout. Besides, the IC50 in assay [3] and in assay [6] was at most 5 µM each time.
In the case of `O=C(NC(c1ccccc1)C1CC1)c1ccc2[nH]nc(-c3ccc(OCCN4CCOCC4)cc3)c2c1` (stereo not shown) [Example A140, N-(cyclopropyl(phenyl)methyl)-3-(4-(2-morpholinoethoxy)phenyl)-1H-indazole-5-carboxamide], the GI50 in assay [1], in assay [2], in assay [4], in assay [5], in assay [7] and in assay [8] was at most 5 µM in each case. For the same compound, the IC50 in assay [3] and in assay [6] was at most 5 µM each time.
In the case of `CCc1cccc(CC)c1NC(=O)Nc1ccc2[nH]nc(-c3ccc4c(c3)CN(C)CCO4)c2c1` [Example A114, 1-(2,6-diethylphenyl)-3-(3-(4-methyl-2,3,4,5-tetrahydrobenzo[f][1,4]oxazepin-7-yl)-1H-indazol-5-yl)urea], the GI50 is at most 5 µM in assay [1]; at most 5 µM in assay [2]; at most 5 µM in assay [4]; at most 5 µM in assay [5]; at most 5 µM in assay [7]; 5 to 20 µM in assay [8]. For the same compound, the IC50 in assay [3] and in assay [6] was at most 5 µM in each case.
